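All cell lines were grown in 96-well plates and treated with compound for 48 hours. The concentration for full growth arrest is given as TGI.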
What was measured:
Test in all cases: NCI anticancer screen, dose series, 48 h
A498 renal = system: A498 renal
SK-MEL-2 melanoma = system: SK-MEL-2 melanoma
DLD-1 colon = system: DLD-1 colon
SF-295 CNS = system: SF-295 CNS
SK-MEL-28 melanoma = system: SK-MEL-28 melanoma
HOP-62 NSCLC = system: HOP-62 NSCLC
HCT-116 colon = system: HCT-116 colon
MCF7 breast = system: MCF7 breast
SW-620 colon = system: SW-620 colon
OVCAR-4 ovarian = system: OVCAR-4 ovarian
786-0 renal = system: 786-0 renal
UACC-62 melanoma = system: UACC-62 melanoma
KM12 colon = system: KM12 colon
SN12C renal = system: SN12C renal
HL-60(TB) leukemia = system: HL-60(TB) leukemia
CAKI-1 renal = system: CAKI-1 renal
HOP-92 NSCLC = system: HOP-92 NSCLC
NCI-H226 lung = system: NCI-H226 lung
OVCAR-8 ovarian = system: OVCAR-8 ovarian
HCT-15 colon = system: HCT-15 colon

SMILES | TGI (A498 renal) [µM] | TGI (SK-MEL-2 melanoma) [µM] | TGI (DLD-1 colon) [µM] | TGI (SF-295 CNS) [µM] | TGI (SK-MEL-28 melanoma) [µM] | TGI (HOP-62 NSCLC) [µM] | TGI (HCT-116 colon) [µM] | TGI (MCF7 breast) [µM] | TGI (SW-620 colon) [µM] | TGI (OVCAR-4 ovarian) [µM] | TGI (786-0 renal) [µM] | TGI (UACC-62 melanoma) [µM] | TGI (KM12 colon) [µM] | TGI (SN12C renal) [µM] | TGI (HL-60(TB) leukemia) [µM] | TGI (CAKI-1 renal) [µM] | TGI (HOP-92 NSCLC) [µM] | TGI (NCI-H226 lung) [µM] | TGI (OVCAR-8 ovarian) [µM] | TGI (HCT-15 colon) [µM]
COC(=O)N/N=C(/c1nc2ccc([N+](=O)[O-])cc2[nH]c1=O)C(O)c1ccc(OC)c(OC)c1 (stereo not given) | > 100 | > 100 | > 100 | > 100 | > 100 | > 100 | > 100 | > 100 | > 100 | > 100 | > 100 | > 100 | > 100 | > 100 | > 100 | > 100 | > 100 | > 100 | > 100 | > 78.4
COc1ccc(/C=C2\CCC(Cc3ccccc3)(CN(C)C)C2=O)cc1 (stereo not given) | > 100 | > 100 | > 100 | > 100 | > 100 | > 100 | > 100 | > 100 | > 73.3 | > 100 | > 100 | > 76.9 | > 100 | > 100 | 55.3 | > 100 | > 100 | > 96.3 | > 100 | > 70.7

— PubChem BioAssay (NCI)
